“Also recorded” adds a separate entry of the source. Where a SMILES comes first, the peptide text is derived from it.
Key:
Format in all cases: cell-based
[1] = target: sodium channel in CNaIIA cells (Rattus norvegicus, UniProt P04775); test: Blocking of the sodium channel in CNaIIA cells by IFM-amide during repetitive stimulation; settings: for dependence of inhibition of sodium channels / sodium channel blocking: repetitive stimulation; for sodium channel blocking: FIGS. 7 and 8
From the text: It was reasoned that a tripeptide IFM-amide could be an effective inactivation gate peptide since it contains both the critical IFM residues and the charge of the unblocked α-amino group in the isoleucine residue. […] During repetitive stimulation, increased inhibition is observed with each succeeding pulse (pulse #) until a steady state is reached (FIG. 7). The degree of inhibition at steady state is dependent on the frequency of the stimulation pulses (% Ipulse #1; FIG. 7) and on the voltage of the stimulating pulses (FIG. 8). […] This implies that IFM amide has greater intrinsic affinity for the receptor site that blocks the sodium channel.

[2] = target: wild-type Type IIA sodium channels (Rattus norvegicus, UniProt P04775); test: Voltage- and frequency-dependent block of sodium channels, sodium currents recorded in CNaIIA-1 cells; settings: for block of rapidly cycling type IIA sodium channels over the entire voltage range: 10 Hz voltage pulses, -50 to +100 mV
wild-type Type IIA sodium channels, sequence (P04775 whole entry): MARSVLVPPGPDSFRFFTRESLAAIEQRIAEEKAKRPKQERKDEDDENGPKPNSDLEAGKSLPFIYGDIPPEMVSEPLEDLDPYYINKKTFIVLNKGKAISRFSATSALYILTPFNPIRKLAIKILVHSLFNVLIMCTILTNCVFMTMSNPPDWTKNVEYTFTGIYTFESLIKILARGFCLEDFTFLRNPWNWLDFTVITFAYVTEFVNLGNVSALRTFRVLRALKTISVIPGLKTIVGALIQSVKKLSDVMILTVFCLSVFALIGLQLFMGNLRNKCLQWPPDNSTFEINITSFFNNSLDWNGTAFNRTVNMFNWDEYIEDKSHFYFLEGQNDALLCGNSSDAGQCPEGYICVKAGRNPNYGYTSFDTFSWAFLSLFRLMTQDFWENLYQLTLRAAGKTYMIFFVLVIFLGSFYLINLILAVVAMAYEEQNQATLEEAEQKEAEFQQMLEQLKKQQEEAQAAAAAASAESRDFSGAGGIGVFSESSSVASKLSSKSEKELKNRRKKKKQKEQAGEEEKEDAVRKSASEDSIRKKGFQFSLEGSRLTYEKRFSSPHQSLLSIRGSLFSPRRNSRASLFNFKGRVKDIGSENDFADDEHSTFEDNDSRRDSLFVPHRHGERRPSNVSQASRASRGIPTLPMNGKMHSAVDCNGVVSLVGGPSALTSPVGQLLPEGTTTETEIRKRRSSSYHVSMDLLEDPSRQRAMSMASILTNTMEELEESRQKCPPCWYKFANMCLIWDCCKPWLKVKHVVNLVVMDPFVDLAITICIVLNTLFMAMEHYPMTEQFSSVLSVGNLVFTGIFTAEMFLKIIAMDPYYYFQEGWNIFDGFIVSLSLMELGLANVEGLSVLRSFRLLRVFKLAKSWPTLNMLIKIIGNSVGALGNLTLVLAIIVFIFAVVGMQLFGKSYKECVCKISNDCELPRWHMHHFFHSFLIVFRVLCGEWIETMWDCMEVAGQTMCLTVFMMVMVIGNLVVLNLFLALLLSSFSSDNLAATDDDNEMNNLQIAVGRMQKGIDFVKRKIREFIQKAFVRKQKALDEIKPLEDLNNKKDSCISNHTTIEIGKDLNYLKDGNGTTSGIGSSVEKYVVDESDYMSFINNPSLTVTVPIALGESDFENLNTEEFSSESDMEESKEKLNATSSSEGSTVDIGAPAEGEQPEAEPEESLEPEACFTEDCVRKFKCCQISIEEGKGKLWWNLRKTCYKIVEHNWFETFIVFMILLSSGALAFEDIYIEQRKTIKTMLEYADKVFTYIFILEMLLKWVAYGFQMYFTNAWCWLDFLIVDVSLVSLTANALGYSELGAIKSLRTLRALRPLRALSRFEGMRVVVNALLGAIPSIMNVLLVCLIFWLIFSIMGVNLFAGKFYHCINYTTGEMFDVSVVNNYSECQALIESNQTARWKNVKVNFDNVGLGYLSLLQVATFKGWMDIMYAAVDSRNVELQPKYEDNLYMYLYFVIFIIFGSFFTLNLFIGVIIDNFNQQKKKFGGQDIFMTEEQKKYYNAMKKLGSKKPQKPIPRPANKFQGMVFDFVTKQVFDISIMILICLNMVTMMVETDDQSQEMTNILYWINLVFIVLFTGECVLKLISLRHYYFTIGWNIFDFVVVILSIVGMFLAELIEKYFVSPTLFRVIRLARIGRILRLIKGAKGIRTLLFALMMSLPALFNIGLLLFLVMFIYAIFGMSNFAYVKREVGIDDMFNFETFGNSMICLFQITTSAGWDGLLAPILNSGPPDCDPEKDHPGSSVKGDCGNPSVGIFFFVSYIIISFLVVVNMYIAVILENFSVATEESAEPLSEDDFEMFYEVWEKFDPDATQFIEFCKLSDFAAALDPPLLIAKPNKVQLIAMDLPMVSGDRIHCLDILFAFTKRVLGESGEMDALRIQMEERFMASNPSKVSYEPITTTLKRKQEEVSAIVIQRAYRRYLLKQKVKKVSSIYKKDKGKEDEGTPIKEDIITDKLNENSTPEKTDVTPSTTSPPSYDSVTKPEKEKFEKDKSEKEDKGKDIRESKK
Experimental: (§1) Experiments were performed on wild-type Type IIA sodium channels stably transfected into Chinese hamster ovary (CHO) cells (CNalIA-1; as described in citation 23, which is incorporated herein by reference) and mutant (F1489Q) sodium channels transiently transfected into human kidney carcinoma cells (as described in citations 24 and 25, which are incorporated herein by reference).
The effects of the KIFMK gate peptide on sodium channels was tested by backfilling an electrode with a recording solution containing 1 mM peptide after loading the tip of the electrode with a buffer of peptide-free solution (i.e., to enhance seal formation when the electrode was inserted into a cell). After forming a high-resistance seal and breaking through the cell membrane, the peptide rapidly diffused into the cell and caused the appearance of tail currents (see below) within 10 minutes. When stabilized, sodium currents were recorded in the cells before and after a series of 10 Hz voltage pulses that varied over the range -50 to +100 mV. Parallel control experiments were conducted in which electrodes were not backfilled with peptides. The magnitude of the sodium currents in the experimental and control preparations were compared.
As a control, a KIQMK peptide was prepared to mimic the sequence present in mutant F 1489Q sodium channels.

[3] = tested on: mutant F1489Q sodium channels; test: Restoration of inactivation in mutant sodium channels transiently expressed in TSQ-201 cells; settings: for inactivation of mutant (F1489Q) sodium channels: peptide perfused at 1 mM into TSQ-201 cells, FIG. 4
Experimental: as §1
Mutant F1489Q sodium channels were transiently expressed in TSQ-201 cells (24). The mutant channels in the cells activated normally but inactivated very slowly. […] The time course of inactivation for the mutant channels was dramatically slowed over the entire voltage range. Having established the properties of the test cells and mutant channels, the peptides KIFMK and KIQMK were next tested. KIFMK or KIQMK were perfused (at a concentration of 1 mM) into the TSQ-201 cells expressing the mutant (F1489Q) sodium channels.

[4] = target: Wild-type IIA sodium channels (Rattus norvegicus, UniProt P04775); test: Competition with the normal inactivation process: tail currents by whole-cell voltage clamp; settings: cell perfused with peptide; for macroscopic sodium current elicited by depolarizing test pulse to 0 mV: versus controls; for tail currents elicited by repolarization pulse: from 0 to -80 mV, FIG. 5
Wild-type IIA sodium channels, sequence (P04775 whole entry, the tested form may be a part): as the sequence (P04775 whole entry) above
From the text: Considering binding of KIFMK inactivation gate peptide to putative inactivation gate receptor site(s) in the intracellular mouth of the sodium channel, peptide binding might prevent channel closure by the natural inactivation gate due to steric hindrance. In this model, closure of the inactivation gate would be prevented by the drug and after depolarization-induced opening, repolarization should cause the peptide to dissociate from the channel, leaving the channel open for a "brief period" of time before closure and inactivation can block the channel. The existence of the "brief period" of channel opening was captured and recorded as a rising component of tail current in the following experiments.
Wild-type IIA sodium channels were recorded using a whole-cell voltage clamp method. Under the recording conditions used, the sodium channels have tail currents upon rapid repolarization that declined exponentially without a rising phase because the channel rapidly closes upon repolarization (FIG. 5A). The magnitude of the tail currents decreases as the duration of the test pulse is increased. Repetitive pulsing created a family of tail current recordings that decreased exponentially (from a starting level near that of the sodium current), without any rising component in the recorded curves (FIG. 5A). […] The amplitude of the rising component of the latter tail currents decreased with increasing pulse duration as the macroscopic sodium current decreased.

[5] = target: scorpion-toxin modified wild-type sodium channels (Rattus norvegicus, UniProt P04775); test: Inactivation in scorpion-toxin modified wild-type sodium channels in CNaIIA-1 cells; settings: 100 nM LqTx in bath; test voltage to 0 mV; FIG. 6
scorpion-toxin modified wild-type sodium channels, sequence (P04775 whole entry): as above
From the text: Externally applied alpha-scorpion toxins slow sodium channel inactivation without affecting activation (reviewed in 26). Sodium currents in stably transfected CNaIIA-1 cells respond to a depolarizing test voltage to 0 mV with rapid activation and inactivation of the sodium channel. […] KIQMK, on the other hand, had no effect (FIG. 6).

Na+ channels = test: Structural specificity: ability of peptides to block sodium channels and restore fast inactivation; settings: qualitative summary; methods similar to Examples 1-4
From the text: The results of these experiments are summarized qualitatively below.

sodium channel in CNaIIA cells, sequence (P04775 whole entry): as above

## CC[C@H](C)[C@H](N)C(=O)N[C@@H](Cc1ccccc1)C(=O)N[C@@H](CCSC)C(N)=O [IFM-amide] (H-Ile-Phe-Met-NH2)
[1]; compare FIGS. 3 and 8
  membrane potentials at which block is effective, compared with KIFMK: effective sodium channel blocker at much more negative membrane potentials than KIFMK
[1]; experiments like those in Example 6
  blocking activity compared with IFM free acid or acetyl IFM free acid: increased blocking activity
[1]
  dependence of inhibition of sodium channels: voltage-sensitive blocking
  sodium channel blocking: blocking of the sodium channel
[1]; listed as IFM amide
  sodium channel blocking: very effective sodium channel blocker
  dependence of inhibition of sodium channels: voltage- and frequency-dependent

## CC[C@H](C)[C@H](NC(=O)[C@H](CCCCN)NC(C)=O)C(=O)N[C@@H](Cc1ccccc1)C(=O)N[C@@H](CCSC)C(=O)N[C@@H](CCCCN)C(N)=O [KIFMK, acetyl-KIFMK-amide]
[2]; 1 mM peptide in backfilled electrode
  time to appearance of tail currents after peptide diffusion into the cell: ≤ 10 min
[2]; 1 mM peptide in electrode, 10 Hz pulses, after 15 min perfusion/cycling
  reduction (inhibition) of sodium currents in response to frequent depolarizing pulses: substantial level of inhibition; also recorded: substantially reduced
[2]; 1 mM peptide, FIG. 3
  channel block by 10 Hz pulses given at 100 mV: completely blocked
[2]; 1 mM peptide, closed channels
  reduction in sodium current when cell membranes not depolarized frequently: Little reduction
[2]; 1 mM peptide, greater than 0 mV
  blockage of currents generated in response to 10 Hz pulses at positive voltages: substantial
[2]; FIG. 3
  block of rapidly cycling type IIA sodium channels over the entire voltage range: inhibited
[2]; FIG. 2A, relative to control recording without peptide
  inhibition of sodium currents within 4 minutes of cycling: insignificant level of inhibition
[2]; combined results of Example 1
  character of the inhibitory effect on the sodium channel: strong and voltage- and frequency-dependent
[3]; 1 mM peptide
  time to steady-state level of inhibition: less than 2 ms
[3]; 1 mM, compared with wild-type channel function
  course and extent of induced inactivation: rapid but incomplete
[3]
  inactivation of mutant (F1489Q) sodium channels: restore inactivation; also recorded: successfully inactivated
[4]
  macroscopic sodium current elicited by depolarizing test pulse to 0 mV: decayed with a time course faster than that of controls
  tail currents elicited by repolarization pulse: rose to a peak and then decayed much more slowly than in controls; also recorded: significant tail currents
[5]
  initial rate of sodium channel inactivation in presence of α-scorpion toxin: significantly accelerated; also recorded: partially restore inactivation activity

## Ac-DIFMT-NH2 [acetyl-DIFMT-amide]
Na+ channels
  Inhibition of Na+ channels: ineffective

## Ac-KIQMK-NH2 [KIQMK, acetyl-KIQMK-amide, reference compound]
[2]; FIG. 3
  block of rapidly cycling type IIA sodium channels over the entire voltage range: inactive; also recorded: did not block
[3]
  inactivation of mutant (F1489Q) sodium channels: without effect; also recorded: did not
[4]
  macroscopic sodium current elicited by depolarizing test pulse to 0 mV: no significant effect
  tail currents elicited by repolarization pulse: no significant effect; also recorded: no significant gating currents
[5]
  initial rate of sodium channel inactivation in presence of α-scorpion toxin: no effect
